Assay results reported in PMC7251018, “Structures of a P4-ATPase lipid flippase in lipid bilayers” (Protein & Cell, 2020).

How the values were obtained:
ctDnf1p-Cdc50p [1] = target: T1, ctDnf1p-Cdc50p (Thermochaetoides thermophila, UniProt G0S196); test: cryo-EM structure in lipid nanodiscs, […] Å; set-up: gene DNF1; purified heterodimer; reconstituted into lipid nanodiscs (MSP) for cryo-EM; printed residues D606 (phosphorylation site), Q549, N550, S555, S559, E561, N1153, S1158; with Cell division control protein 50 (CDC50 family beta-subunit); conditions: E1-ATP state; nucleotide-binding site, extended conformation
T1 sequence (G0S196 whole entry): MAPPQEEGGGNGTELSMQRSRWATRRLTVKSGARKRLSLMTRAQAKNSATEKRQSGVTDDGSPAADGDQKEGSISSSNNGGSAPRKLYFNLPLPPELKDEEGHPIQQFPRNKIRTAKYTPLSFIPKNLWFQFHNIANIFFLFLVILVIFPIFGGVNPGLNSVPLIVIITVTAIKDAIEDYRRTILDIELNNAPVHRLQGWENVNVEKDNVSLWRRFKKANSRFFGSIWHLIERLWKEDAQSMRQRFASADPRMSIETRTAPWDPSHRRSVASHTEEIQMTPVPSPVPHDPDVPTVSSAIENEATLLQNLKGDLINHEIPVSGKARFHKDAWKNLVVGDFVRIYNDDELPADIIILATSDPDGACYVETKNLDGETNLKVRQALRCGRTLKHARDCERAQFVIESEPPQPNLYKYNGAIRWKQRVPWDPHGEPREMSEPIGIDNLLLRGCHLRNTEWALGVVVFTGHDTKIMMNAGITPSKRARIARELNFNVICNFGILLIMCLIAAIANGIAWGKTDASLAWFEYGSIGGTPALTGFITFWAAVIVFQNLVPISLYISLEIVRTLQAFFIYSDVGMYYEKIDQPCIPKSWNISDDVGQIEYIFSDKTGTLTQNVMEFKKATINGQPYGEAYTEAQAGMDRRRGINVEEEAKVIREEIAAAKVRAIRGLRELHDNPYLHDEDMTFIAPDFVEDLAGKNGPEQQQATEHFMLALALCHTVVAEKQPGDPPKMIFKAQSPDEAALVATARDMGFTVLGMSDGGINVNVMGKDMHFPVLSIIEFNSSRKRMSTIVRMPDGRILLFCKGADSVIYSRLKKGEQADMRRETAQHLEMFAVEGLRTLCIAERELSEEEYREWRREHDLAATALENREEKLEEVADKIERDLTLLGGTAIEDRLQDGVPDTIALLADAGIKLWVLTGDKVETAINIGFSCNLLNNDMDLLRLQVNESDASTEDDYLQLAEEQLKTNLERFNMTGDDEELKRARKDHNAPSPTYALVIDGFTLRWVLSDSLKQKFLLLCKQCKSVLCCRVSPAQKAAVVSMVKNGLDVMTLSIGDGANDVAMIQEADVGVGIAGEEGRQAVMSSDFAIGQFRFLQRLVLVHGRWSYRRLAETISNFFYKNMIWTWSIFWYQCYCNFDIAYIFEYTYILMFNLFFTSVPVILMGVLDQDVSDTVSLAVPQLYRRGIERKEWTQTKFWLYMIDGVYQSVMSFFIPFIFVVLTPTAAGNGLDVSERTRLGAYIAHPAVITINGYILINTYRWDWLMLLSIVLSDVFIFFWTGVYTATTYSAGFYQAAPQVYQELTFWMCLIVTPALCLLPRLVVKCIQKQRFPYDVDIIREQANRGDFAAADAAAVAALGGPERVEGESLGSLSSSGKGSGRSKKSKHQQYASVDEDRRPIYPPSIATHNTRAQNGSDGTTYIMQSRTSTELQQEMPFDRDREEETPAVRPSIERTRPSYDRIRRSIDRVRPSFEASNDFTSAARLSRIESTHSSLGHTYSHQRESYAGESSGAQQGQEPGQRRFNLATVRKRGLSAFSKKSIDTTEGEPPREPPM
T1 sequence (G0SDN0 whole entry partner): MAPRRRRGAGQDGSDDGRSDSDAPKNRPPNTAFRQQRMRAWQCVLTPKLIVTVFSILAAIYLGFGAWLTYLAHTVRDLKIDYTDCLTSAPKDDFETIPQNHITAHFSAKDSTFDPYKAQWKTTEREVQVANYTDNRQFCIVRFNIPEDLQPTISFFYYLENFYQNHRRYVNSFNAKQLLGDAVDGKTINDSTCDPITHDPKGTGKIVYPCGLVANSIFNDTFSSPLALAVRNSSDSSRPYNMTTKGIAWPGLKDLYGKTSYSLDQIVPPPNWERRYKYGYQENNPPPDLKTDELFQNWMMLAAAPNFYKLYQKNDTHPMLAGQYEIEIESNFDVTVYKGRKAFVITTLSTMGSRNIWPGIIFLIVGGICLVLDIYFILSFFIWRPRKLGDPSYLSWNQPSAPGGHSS

ctDnf1p-Cdc50p [2] = target: T1, ctDnf1p-Cdc50p; test: ATPase activity; format: biochemical; set-up: gene DNF1; purified heterodimer; reconstituted into lipid nanodiscs (MSP) for cryo-EM; printed residues D606 (phosphorylation site), Q549, N550, S555, S559, E561, N1153, S1158; with Cell division control protein 50 (CDC50 family beta-subunit); conditions: phospholipid-dependent
ctDnf1p-Cdc50p [3] = target: T1, ctDnf1p-Cdc50p; set-up: gene DNF1; conditions: E2P state; phosphorylation site D606; phosphate analogue

## Nc1ncnc2c1ncn2[C@@H]1O[C@H](COP(=O)(O)OP(=O)(O)CP(=O)(O)O)[C@@H](O)[C@H]1O [AMPPCP]
ctDnf1p-Cdc50p [1]
  cryo-EM structure in lipid nanodiscs, 3.5 Å: In the E1-ATP structure, AMPPCP adapts an extended conformation

## Nc1ncnc2c1ncn2[C@@H]1O[C@H](COP(=O)(O)OP(=O)(O)OP(=O)(O)O)[C@@H](O)[C@H]1O [ATP]
ctDnf1p-Cdc50p [2]
  ATPase activity: The purified ctDnf1p-Cdc50p heterodimer showed phospholipid-dependent ATPase activity

## [F][Be-]([F])[F] [BeF3^−]
ctDnf1p-Cdc50p [3]
  cryo-EM structure in lipid nanodiscs, 3.4 Å: In the E2P structure, BeF3^− is bound at the phosphorylation site D606
